{"source": "paper PMC12281424", "about": "“A Rac-specific competitive inhibitor of guanine nucleotide binding reduces metastasis in triple-negative breast cancer” (Cell Reports Medicine, 2025)", "key": {"[1]": {"system": "membrane receptors, ion channel, and kinases", "test": "In vitro binding assays on a panel of potential targets", "procedure": "(§1) Blood cell counts, kinase profiler, safety screen, bacterial cytotoxicity, Ames, micronucleus assays were performed by the company Eurofins (France). The kinase profiler was performed by the company Eurofins (Discovery, Panlab and Cerep)."}, "[2]": {"molecular_target": "Serotonin (5-Hydroxytryptamine) 5-HT3 (Homo sapiens, UniProt P46098)", "test": "Safety screen", "format": "binding", "procedure": "(§2) Blood cell counts, kinase profiler, safety screen, bacterial cytotoxicity, Ames, micronucleus assays were performed by the company Eurofins (France)."}, "CDK4/cyclinD3(h)": {"molecular_target": "CDK4/cyclinD3(h) (Homo sapiens, UniProt P11802)", "sequence (P11802 whole entry)": "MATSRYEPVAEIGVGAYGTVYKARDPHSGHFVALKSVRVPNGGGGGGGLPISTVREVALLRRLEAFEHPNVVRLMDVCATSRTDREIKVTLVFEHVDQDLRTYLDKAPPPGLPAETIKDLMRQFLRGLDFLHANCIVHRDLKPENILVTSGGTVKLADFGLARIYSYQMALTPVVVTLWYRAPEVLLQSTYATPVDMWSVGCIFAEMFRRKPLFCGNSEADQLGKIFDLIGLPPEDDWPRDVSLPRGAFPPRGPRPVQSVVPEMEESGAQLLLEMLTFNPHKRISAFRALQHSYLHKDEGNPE", "sequence (P30281 whole entry partner)": "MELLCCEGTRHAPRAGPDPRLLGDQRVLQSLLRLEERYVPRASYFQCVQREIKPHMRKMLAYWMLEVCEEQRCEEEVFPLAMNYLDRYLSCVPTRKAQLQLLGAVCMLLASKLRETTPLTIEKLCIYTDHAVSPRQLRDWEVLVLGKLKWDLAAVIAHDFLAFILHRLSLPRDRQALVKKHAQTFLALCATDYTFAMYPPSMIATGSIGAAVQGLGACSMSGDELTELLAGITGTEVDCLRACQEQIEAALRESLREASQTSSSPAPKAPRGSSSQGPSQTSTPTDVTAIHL", "test": "Kinase Profiler", "format": "biochemical", "procedure": "as §1"}, "JNK3(h)": {"molecular_target": "JNK3(h) (Homo sapiens, UniProt P53779)", "sequence (P53779 whole entry)": "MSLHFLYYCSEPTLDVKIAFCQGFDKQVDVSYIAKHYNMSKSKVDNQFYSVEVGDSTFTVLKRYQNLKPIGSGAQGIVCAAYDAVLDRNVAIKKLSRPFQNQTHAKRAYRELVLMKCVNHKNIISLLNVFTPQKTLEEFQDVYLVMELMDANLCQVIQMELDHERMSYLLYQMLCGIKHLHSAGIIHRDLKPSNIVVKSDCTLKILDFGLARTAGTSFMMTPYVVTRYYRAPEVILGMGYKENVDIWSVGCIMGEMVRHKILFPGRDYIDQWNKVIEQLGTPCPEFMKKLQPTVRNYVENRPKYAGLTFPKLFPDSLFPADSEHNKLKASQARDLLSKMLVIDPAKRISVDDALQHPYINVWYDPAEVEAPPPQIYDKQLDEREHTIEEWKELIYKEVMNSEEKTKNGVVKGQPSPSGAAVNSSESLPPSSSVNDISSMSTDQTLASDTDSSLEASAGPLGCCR", "test": "Kinase Profiler", "format": "biochemical", "procedure": "(§3) The kinase profiler was performed by the company Eurofins (Discovery, Panlab and Cerep)."}, "[3]": {"test": "In vivo toxicity, chronic daily intraperitoneal injection", "parameters": "species or system mouse", "settings": "1, 10 and 25 mg/kg daily i.p. for 1 month", "method": "In order to assess the anti-tumor properties of A41 in vivo, we first would like to make sure of the safety and the absence of major off-target effects of A41. […] In vivo safety has been addressed by monitoring various biological parameters in mice chronically receiving daily intraperitoneal A41 injection (1, 10, and 25 mg/kg) for 1 month. […] We then analyzed pharmacokinetics and tissue distribution of A41 following intraperitoneal injection of A41 (25 mg/kg). A41 rapidly reached its peak plasma concentration (∼15 min, 15.056 ± 0.5 μg/mL), which then declined over 2–3 h (Figure S7). A41 was detected in the liver, heart, and lungs.\nSupplementary Fig. 6: In vivo A41 toxicity. (a) Effect of chronic administration of A41 at the indicated concentrations by daily intraperitoneal injections in mice on weight gain glycemia. (b) and (c), Glycemia (b) and plasmatic concentration of transaminases (ALAT and ASAT), albumin, urea, creatinine and total protein in mice after of 1 month of chronic administration of A41 at indicated concentrations (c). N=6-7"}, "CK2α2(h)": {"molecular_target": "CK2α2(h) (Homo sapiens, UniProt P19784)", "test": "Kinase Profiler", "format": "biochemical", "procedure": "as §3"}, "PKG1α(h)": {"molecular_target": "PKG1α(h) (Homo sapiens, UniProt Q13976)", "sequence (Q13976 whole entry)": "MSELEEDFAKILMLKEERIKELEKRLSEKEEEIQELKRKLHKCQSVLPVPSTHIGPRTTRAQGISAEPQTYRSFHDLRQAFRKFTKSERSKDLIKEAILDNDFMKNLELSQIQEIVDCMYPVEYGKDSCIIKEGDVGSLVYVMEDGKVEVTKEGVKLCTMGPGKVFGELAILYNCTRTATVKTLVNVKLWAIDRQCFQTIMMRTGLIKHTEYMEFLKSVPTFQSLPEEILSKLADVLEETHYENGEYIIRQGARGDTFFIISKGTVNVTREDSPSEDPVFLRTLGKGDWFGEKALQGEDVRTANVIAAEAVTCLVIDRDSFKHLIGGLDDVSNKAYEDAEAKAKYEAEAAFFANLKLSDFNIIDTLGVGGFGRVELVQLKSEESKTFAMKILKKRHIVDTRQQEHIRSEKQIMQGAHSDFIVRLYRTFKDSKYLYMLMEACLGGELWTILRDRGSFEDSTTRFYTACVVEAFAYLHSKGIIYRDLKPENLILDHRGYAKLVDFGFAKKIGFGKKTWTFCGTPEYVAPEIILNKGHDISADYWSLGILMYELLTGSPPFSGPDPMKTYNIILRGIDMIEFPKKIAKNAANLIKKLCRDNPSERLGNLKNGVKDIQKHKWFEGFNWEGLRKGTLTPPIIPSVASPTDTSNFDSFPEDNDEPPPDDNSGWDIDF", "test": "Kinase Profiler", "format": "biochemical", "procedure": "as §3"}, "CHK2(h)": {"molecular_target": "CHK2(h) (Homo sapiens, UniProt O96017)", "sequence (O96017 whole entry)": "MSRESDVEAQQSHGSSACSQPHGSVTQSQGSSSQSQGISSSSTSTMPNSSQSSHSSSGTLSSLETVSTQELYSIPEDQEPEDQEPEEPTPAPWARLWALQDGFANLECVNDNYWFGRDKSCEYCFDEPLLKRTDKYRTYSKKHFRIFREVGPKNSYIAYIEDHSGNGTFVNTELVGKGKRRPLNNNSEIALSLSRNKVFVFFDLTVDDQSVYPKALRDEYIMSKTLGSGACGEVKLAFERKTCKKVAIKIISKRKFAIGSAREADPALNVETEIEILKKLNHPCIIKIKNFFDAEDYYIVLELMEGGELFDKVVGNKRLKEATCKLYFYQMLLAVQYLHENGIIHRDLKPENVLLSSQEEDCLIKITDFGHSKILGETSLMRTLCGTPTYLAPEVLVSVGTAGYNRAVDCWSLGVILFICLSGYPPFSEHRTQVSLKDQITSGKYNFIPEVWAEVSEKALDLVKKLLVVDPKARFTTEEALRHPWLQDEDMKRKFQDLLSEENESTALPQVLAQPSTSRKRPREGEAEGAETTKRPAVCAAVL", "test": "Kinase Profiler", "format": "biochemical", "procedure": "as §3"}, "MuSK(h)": {"molecular_target": "MuSK(h) (Homo sapiens, UniProt O15146)", "test": "Kinase Profiler", "format": "biochemical", "procedure": "as §3"}, "DCAMKL2(h)": {"molecular_target": "DCAMKL2(h) (Homo sapiens, UniProt Q8N568)", "test": "Kinase Profiler", "format": "biochemical", "procedure": "as §1"}, "MAP4K4(h)": {"molecular_target": "MAP4K4(h) (Homo sapiens, UniProt O95819)", "sequence (O95819 whole entry)": "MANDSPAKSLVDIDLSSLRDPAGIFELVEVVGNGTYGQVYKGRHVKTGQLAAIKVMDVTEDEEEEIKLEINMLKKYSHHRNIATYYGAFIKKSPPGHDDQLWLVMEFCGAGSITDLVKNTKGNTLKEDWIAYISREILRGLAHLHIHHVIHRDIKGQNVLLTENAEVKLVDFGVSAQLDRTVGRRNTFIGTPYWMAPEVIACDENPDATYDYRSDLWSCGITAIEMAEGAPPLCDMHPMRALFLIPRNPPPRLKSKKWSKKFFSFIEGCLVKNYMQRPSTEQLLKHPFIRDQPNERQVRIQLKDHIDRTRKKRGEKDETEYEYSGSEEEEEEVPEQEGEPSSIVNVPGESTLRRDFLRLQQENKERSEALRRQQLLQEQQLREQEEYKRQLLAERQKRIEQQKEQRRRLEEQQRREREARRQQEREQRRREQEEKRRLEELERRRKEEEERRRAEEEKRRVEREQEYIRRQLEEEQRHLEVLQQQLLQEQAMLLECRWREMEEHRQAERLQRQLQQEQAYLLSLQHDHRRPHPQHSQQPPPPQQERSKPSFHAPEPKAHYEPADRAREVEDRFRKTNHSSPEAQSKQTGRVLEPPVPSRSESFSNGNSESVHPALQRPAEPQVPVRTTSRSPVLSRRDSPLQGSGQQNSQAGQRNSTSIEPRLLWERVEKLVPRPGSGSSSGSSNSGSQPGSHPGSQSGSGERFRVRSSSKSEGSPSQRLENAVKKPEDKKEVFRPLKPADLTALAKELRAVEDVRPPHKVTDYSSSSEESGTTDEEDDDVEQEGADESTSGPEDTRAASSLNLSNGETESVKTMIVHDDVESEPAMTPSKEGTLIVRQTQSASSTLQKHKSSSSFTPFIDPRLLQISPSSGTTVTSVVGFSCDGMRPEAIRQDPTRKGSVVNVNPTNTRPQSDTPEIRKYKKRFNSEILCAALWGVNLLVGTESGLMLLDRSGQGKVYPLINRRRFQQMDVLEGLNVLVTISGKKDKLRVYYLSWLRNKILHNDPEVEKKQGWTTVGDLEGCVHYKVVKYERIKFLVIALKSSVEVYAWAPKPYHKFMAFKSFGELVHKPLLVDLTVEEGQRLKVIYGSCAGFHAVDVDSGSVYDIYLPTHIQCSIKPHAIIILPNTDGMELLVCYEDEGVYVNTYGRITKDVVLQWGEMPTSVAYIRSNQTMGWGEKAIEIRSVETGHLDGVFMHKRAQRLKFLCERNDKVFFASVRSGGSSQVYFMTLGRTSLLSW", "test": "Kinase Profiler", "format": "biochemical", "procedure": "as §3"}, "[4]": {"system": "Calcium Channel L-Type, Benzothiazepine", "test": "Safety screen", "format": "binding, rat"}, "cKit(V560G)(h)": {"molecular_target": "cKit(V560G)(h) (Homo sapiens, UniProt P10721, V560G)", "test": "Kinase Profiler", "format": "biochemical", "procedure": "as §1"}, "PKCμ(h)": {"molecular_target": "PKCμ(h) (Homo sapiens, UniProt Q15139)", "test": "Kinase Profiler", "format": "biochemical", "procedure": "as §3"}, "MARK3(h)": {"molecular_target": "MARK3(h) (Homo sapiens, UniProt P27448)", "test": "Kinase Profiler", "format": "biochemical", "procedure": "as §3"}, "STK32C(h)": {"molecular_target": "STK32C(h) (Homo sapiens, UniProt Q86UX6)", "test": "Kinase Profiler", "format": "biochemical", "procedure": "as §3"}, "EphB4(h)": {"molecular_target": "EphB4(h) (Homo sapiens, UniProt P54760)", "test": "Kinase Profiler", "format": "biochemical", "procedure": "as §1"}, "Transporter, Adenosine": {"system": "Transporter, Adenosine", "test": "Safety screen", "format": "binding, guinea pig", "procedure": "as §2"}, "PRP4(h)": {"molecular_target": "PRP4(h) (Homo sapiens, UniProt Q13523)", "test": "Kinase Profiler", "format": "biochemical", "procedure": "as §3"}, "TA1535": {"system": "TA1535", "test": "Ames fluctuation test (5th group)", "format": "cell-based", "from_the_text": "Data S3. Ames-fluctuation assay-A41.\nTest Concentration Count Positive Significance Fisher Exact Test"}, "Rsk2(h)": {"molecular_target": "Rsk2(h) (Homo sapiens, UniProt P51812)", "sequence (P51812 whole entry)": "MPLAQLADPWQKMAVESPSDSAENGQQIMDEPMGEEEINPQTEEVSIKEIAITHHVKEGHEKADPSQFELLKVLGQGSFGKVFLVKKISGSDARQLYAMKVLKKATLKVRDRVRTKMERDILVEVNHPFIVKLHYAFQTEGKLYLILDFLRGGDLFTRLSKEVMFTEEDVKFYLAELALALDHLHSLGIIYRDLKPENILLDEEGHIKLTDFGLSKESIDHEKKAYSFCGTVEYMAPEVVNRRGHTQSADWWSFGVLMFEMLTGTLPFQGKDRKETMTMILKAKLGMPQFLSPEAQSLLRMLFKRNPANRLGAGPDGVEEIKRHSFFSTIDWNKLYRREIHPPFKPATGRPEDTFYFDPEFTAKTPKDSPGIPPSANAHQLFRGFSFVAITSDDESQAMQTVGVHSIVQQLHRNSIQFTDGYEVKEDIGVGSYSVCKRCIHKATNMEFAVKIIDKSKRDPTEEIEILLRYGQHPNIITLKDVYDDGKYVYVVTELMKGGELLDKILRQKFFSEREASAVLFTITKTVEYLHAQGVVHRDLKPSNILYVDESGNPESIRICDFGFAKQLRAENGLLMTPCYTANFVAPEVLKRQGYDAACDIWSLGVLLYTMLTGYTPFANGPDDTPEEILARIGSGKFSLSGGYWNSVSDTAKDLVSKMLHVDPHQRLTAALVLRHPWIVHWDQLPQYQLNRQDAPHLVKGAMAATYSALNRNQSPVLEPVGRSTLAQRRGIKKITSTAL", "test": "Kinase Profiler", "format": "biochemical", "procedure": "as §3"}, "TGFBR1(h)": {"molecular_target": "TGFBR1(h) (Homo sapiens, UniProt P36897)", "sequence (P36897 34-503)": "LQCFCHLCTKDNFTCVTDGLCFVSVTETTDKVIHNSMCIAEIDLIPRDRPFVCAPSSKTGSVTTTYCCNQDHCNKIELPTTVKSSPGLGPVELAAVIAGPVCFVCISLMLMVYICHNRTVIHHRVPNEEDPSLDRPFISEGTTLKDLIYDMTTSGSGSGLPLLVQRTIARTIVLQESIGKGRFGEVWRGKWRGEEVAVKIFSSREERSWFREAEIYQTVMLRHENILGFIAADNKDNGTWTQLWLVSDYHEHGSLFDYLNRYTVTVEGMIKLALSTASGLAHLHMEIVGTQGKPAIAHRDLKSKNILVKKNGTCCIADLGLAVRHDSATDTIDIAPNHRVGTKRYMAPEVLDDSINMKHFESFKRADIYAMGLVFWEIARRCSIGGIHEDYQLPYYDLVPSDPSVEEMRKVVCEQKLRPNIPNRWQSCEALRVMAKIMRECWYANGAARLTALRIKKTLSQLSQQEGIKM", "test": "Kinase Profiler", "format": "biochemical", "procedure": "as §1"}, "IKKα(h)": {"molecular_target": "IKKα(h) (Homo sapiens, UniProt O15111)", "test": "Kinase Profiler", "format": "biochemical", "procedure": "as §1"}}, "data": [{"smiles": "COc1ccc(OC)c(NS(=O)(=O)c2ccc(NC(=O)CCSc3ccc(C)cc3)cc2)c1", "note": "[Compound A41]", "values": [{"measurement": "off-target binding", "setting": "[1]", "value": "only very limited off-target binding"}, {"measurement": "% inh.", "setting": "[2]", "value": -2, "unit": "%"}, {"measurement": "Activity(%)", "setting": "CDK4/cyclinD3(h)", "value": 96, "unit": "%"}, {"measurement": "Activity(%)", "setting": "JNK3(h)", "value": 123, "unit": "%"}, {"measurement": "biological parameters incl. weight", "setting": "[3]", "value": "None of the parameters measured, including the weight of the mice, was affected"}, {"measurement": "deaths", "setting": "[3]", "value": "No deaths"}, {"measurement": "visual inspection (suffering, behavior)", "setting": "[3]", "value": "no sign of suffering or abnormal behavior"}, {"measurement": "Activity(%)", "setting": "CK2α2(h)", "value": 109, "unit": "%"}, {"measurement": "Activity(%)", "setting": "PKG1α(h)", "value": 113, "unit": "%"}, {"measurement": "Activity(%)", "setting": "CHK2(h)", "value": 111, "unit": "%"}, {"measurement": "Activity(%)", "setting": "MuSK(h)", "value": 112, "unit": "%"}, {"measurement": "Activity(%)", "setting": "DCAMKL2(h)", "value": 103, "unit": "%"}, {"measurement": "Activity(%)", "setting": "MAP4K4(h)", "value": 107, "unit": "%"}, {"measurement": "% inh.", "setting": "[4]", "value": 46, "unit": "%"}, {"measurement": "Activity(%)", "setting": "cKit(V560G)(h)", "value": 115, "unit": "%"}, {"measurement": "Activity(%)", "setting": "PKCμ(h)", "value": 104, "unit": "%"}, {"measurement": "Activity(%)", "setting": "MARK3(h)", "value": 98, "unit": "%"}, {"measurement": "Activity(%)", "setting": "STK32C(h)", "value": 105, "unit": "%"}, {"measurement": "Activity(%)", "setting": "EphB4(h)", "value": 112, "unit": "%"}, {"measurement": "% inh.", "setting": "Transporter, Adenosine", "value": 37, "unit": "%"}, {"measurement": "Activity(%)", "setting": "PRP4(h)", "value": 110, "unit": "%"}, {"measurement": "Count Positive (# of wells)", "setting": "TA1535; - S9, 1.0E-04 M", "value": 0}, {"measurement": "Count Positive (# of wells)", "setting": "TA1535; - S9, 1.0E-05 M", "value": 2}, {"measurement": "Count Positive (# of wells)", "setting": "TA1535; - S9, 5.0E-05 M", "value": 0}, {"measurement": "Count Positive (# of wells)", "setting": "TA1535; - S9, 5.0E-06 M", "value": 0}, {"measurement": "Activity(%)", "setting": "Rsk2(h)", "value": 86, "unit": "%"}, {"measurement": "Activity(%)", "setting": "TGFBR1(h)", "value": 103, "unit": "%"}, {"measurement": "Activity(%)", "setting": "IKKα(h)", "value": 107, "unit": "%"}]}]}
